Columns and labels:
human μ opiate receptor = target: T1, human μ opiate receptor (Homo sapiens, UniProt P35372); assay: Affinity for the human μ opiate receptor ([3H]-naloxone displacement, CHO-K1 receptor membrane preparation, SPA); assay type: binding; conditions: test concentration of 1 μM
T1 construct: purchased PerkinElmer Life Sciences, Zaventem, Belgium RB-HOM; host or cells: CHO-K1 cells (membrane preparation)
How it was run: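 CHO-K1 membranes expressing human μ receptor incubated 90 min at room temperature with 1 nmol/l [3H]-naloxone and WGA-SPA beads in 50 mmol/l Tris-HCl, 0.06% BSA; 100 μmol/l naloxone defines non-specific binding. Values are % inhibition of specific binding at 1 μM; IC50 converted to Ki by Cheng-Prusoff.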

[1] = target: T2, bradykinin 1 receptor (B1R) of the rat (Rattus norvegicus, UniProt P97583); assay: Functional investigation on the rat bradykinin 1 receptor (B1R), Ca2+ FLIPR assay in CHO K1 rB1R cells; assay type: cell-based; conditions: B1R antagonism rat; test substance 10 μM; Ca2+ FLIPR, CHO K1 rB1R cells
T2 construct: expressed in transfected cells; host or cells: CHO K1 cells
T2 sequence (P97583 1-337): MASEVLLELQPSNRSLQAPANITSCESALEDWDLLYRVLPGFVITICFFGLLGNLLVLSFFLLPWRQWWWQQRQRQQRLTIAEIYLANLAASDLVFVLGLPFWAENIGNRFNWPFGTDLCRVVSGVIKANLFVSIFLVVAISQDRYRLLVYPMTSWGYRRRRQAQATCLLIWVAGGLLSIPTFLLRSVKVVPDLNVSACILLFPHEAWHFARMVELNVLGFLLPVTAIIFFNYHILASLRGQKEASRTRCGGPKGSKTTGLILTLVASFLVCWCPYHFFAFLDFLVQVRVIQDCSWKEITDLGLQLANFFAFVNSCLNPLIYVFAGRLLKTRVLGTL
How it was run: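 Stably transfected CHO K1 cells loaded with Fluo-4; FLIPR Ca2+ fluorescence peak (ex 488/em 540 nm). Compound added first (agonism vs Lys-Des-Arg9-bradykinin ≥50 nM human, Des-Arg9-bradykinin 10 μM rat), then after 10-20 min agonist at EC80; antagonism as % inhibition, IC50 from concentration series, n=2-3, N≥2.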

T1 sequence (P35372 whole entry): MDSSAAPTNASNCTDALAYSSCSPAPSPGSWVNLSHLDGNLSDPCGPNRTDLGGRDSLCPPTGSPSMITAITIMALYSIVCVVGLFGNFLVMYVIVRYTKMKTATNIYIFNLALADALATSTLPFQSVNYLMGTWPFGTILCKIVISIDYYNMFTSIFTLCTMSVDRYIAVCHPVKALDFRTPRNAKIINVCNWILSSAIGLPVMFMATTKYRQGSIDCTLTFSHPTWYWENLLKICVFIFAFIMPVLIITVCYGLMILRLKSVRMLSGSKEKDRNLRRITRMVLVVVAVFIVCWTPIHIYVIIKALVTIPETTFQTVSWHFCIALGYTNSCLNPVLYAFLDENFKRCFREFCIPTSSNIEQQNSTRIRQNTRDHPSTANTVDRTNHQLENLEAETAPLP

## COc1ccc(S(=O)(=O)N2CCCCC2COCC(=O)NCCC2CCC(C(c3ccc(F)cc3)N(C)C)CC2)c(OC)c1 (stereo not shown) [Example 500]
Human μ opiate receptor
  μ (binding on the μ opioid receptor, % inhibition): 43%
[1]
  B1R Ant. r [10 μM] % Inhibition: 23%

## Cc1cc(C)c(S(=O)(=O)N2CCC(OCC(=O)NCCC3CCC(C(c4ccc(F)cc4)N(C)C)CC3)C2)c(C)c1 (stereo not shown) [Example 501]
Human μ opiate receptor
  μ (binding on the μ opioid receptor, % inhibition): 45%
[1]
  B1R Ant. r [10 μM] % Inhibition: 38%

## CN(C)C(c1ccc(F)cc1)C1CCC(NC(=O)COCCN2CCN(S(=O)(=O)c3ccccc3)CC2)CC1 (stereo not shown) [Example 502]
Human μ opiate receptor
  μ (binding on the μ opioid receptor, % inhibition): 33%
[1]
  B1R Ant. r [10 μM] % Inhibition: 21%

## COc1cc(C)c(S(=O)(=O)N2CCC(OCC(=O)NCC3CCC(C(CCc4ccccc4)N(C)C)CC3)C2)c(C)c1C (stereo not shown) [Example 503]
Human μ opiate receptor
  μ (binding on the μ opioid receptor, % inhibition): 37%
[1]
  B1R Ant. r [10 μM] % Inhibition: 37%

## COc1cc(C)c(S(=O)(=O)N(CCOCC(=O)NC2CCC(C(c3ccc(F)cc3)N(C)C)CC2)Cc2ccccc2)c(C)c1 (stereo not shown) [Example 504]
Human μ opiate receptor
  μ (binding on the μ opioid receptor, % inhibition): 43%
[1]
  B1R Ant. r [10 μM] % Inhibition: 48%

## Cc1cc(C)c(S(=O)(=O)N2CCC(OCC(=O)NCCC3CCC(C(c4ccc(Cl)cc4)N(C)C)CC3)C2)c(C)c1 (stereo not shown) [Example 506]
Human μ opiate receptor
  μ (binding on the μ opioid receptor, % inhibition): 42%
[1]
  B1R Ant. r [10 μM] % Inhibition: 23%

## CN(C)C(c1ccccc1)C1CCC(CNC(=O)COCCC2CCN(S(=O)(=O)c3ccccc3)CC2)CC1 (stereo not shown) [Example 507]
Human μ opiate receptor
  μ (binding on the μ opioid receptor, % inhibition): 32%
[1]
  B1R Ant. r [10 μM] % Inhibition: 3%

## COc1ccc(S(=O)(=O)N(C)CCOCC(=O)NCC2CCC(C(c3ccc(F)cc3)N(C)C)CC2)cc1 (stereo not shown) [Example 508]
Human μ opiate receptor
  μ (binding on the μ opioid receptor, % inhibition): 31%
[1]
  B1R Ant. r [10 μM] % Inhibition: 42%

## COc1cc(C)c(S(=O)(=O)N2CCC(OCC(=O)NCCC3CCC(C(c4ccc(F)cc4)N(C)C)CC3)C2)c(C)c1 (stereo not shown) [Example 509]
Human μ opiate receptor
  μ (binding on the μ opioid receptor, % inhibition): 43%
[1]
  B1R Ant. r [10 μM] % Inhibition: 94%

## COc1cc(C)c(S(=O)(=O)N2CCC(CCOCC(=O)NCCC3CCC(C(c4ccc(F)cc4)N(C)C)CC3)CC2)c(C)c1C (stereo not shown) [Example 510]
Human μ opiate receptor
  μ (binding on the μ opioid receptor, % inhibition): 33%
[1]
  B1R Ant. r [10 μM] % Inhibition: 27%

## COc1ccc(S(=O)(=O)N2CCCC2COCC(=O)NCC2CCC(C(c3ccc(F)cc3)N(C)C)CC2)cc1 (stereo not shown) [Example 511]
Human μ opiate receptor
  μ (binding on the μ opioid receptor, % inhibition): 39%
[1]
  B1R Ant. r [10 μM] % Inhibition: 17%

## COc1ccc(S(=O)(=O)N2CCC(OCC(=O)NC3CCC(C(c4ccc(F)cc4)N(C)C)CC3)C2)cc1OC (stereo not shown) [Example 512]
Human μ opiate receptor
  μ (binding on the μ opioid receptor, % inhibition): 42%
[1]
  B1R Ant. r [10 μM] % Inhibition: 38%

## CN(C)C(CCc1ccccc1)C1CCC(CNC(=O)COCCN(C)S(=O)(=O)c2ccc(Cl)cc2Cl)CC1 (stereo not shown) [Example 513]
Human μ opiate receptor
  μ (binding on the μ opioid receptor, % inhibition): 38%
[1]
  B1R Ant. r [10 μM] % Inhibition: 40%

## COc1ccc(S(=O)(=O)N(C)CCOCC(=O)NCC2CCC(C(c3ccc(F)cc3)N(C)C)CC2)cc1OC (stereo not shown) [Example 514]
Human μ opiate receptor
  μ (binding on the μ opioid receptor, % inhibition): 27%
[1]
  B1R Ant. r [10 μM] % Inhibition: 22%

## CN(C)C(CCc1ccccc1)C1CCC(CNC(=O)COCCN(C)S(=O)(=O)c2c(Cl)cc(Cl)cc2Cl)CC1 (stereo not shown) [Example 515]
Human μ opiate receptor
  μ (binding on the μ opioid receptor, % inhibition): 42%
[1]
  B1R Ant. r [10 μM] % Inhibition: 54%

## CN(C)C(c1ccc(F)cc1)C1CCC(CNC(=O)COC2CCN(S(=O)(=O)c3ccc(Cl)cc3)C2)CC1 (stereo not shown) [Example 517]
Human μ opiate receptor
  μ (binding on the μ opioid receptor, % inhibition): 40%
[1]
  B1R Ant. r [10 μM] % Inhibition: 38%

## CN(C)C(c1ccc(F)cc1)C1CCC(CCNC(=O)COC2CCN(S(=O)(=O)c3ccc(F)cc3)C2)CC1 (stereo not shown) [Example 518]
Human μ opiate receptor
  μ (binding on the μ opioid receptor, % inhibition): 35%
[1]
  B1R Ant. r [10 μM] % Inhibition: 26%

## COc1ccc(S(=O)(=O)N(C)CCOCC(=O)NCCC2CCC(C(c3ccc(F)cc3)N(C)C)CC2)cc1 (stereo not shown) [Example 519]
Human μ opiate receptor
  μ (binding on the μ opioid receptor, % inhibition): 39%
[1]
  B1R Ant. r [10 μM] % Inhibition: 44%

## CN(C)C(c1ccc(F)cc1)C1CCC(CCNC(=O)COC2CCCN(S(=O)(=O)c3ccccc3)C2)CC1 (stereo not shown) [Example 520]
Human μ opiate receptor
  μ (binding on the μ opioid receptor, % inhibition): 31%
[1]
  B1R Ant. r [10 μM] % Inhibition: 24%

## COc1cc(C)c(S(=O)(=O)N2CCC(CCOCC(=O)NCC3CCC(C(CCc4ccccc4)N(C)C)CC3)CC2)c(C)c1C (stereo not shown) [Example 521]
Human μ opiate receptor
  μ (binding on the μ opioid receptor, % inhibition): 39%
[1]
  B1R Ant. r [10 μM] % Inhibition: 11%

## CN(C)C(c1ccc(F)cc1)C1CCC(CNC(=O)COC2CCN(S(=O)(=O)c3ccc(F)cc3)C2)CC1 (stereo not shown) [Example 522]
Human μ opiate receptor
  μ (binding on the μ opioid receptor, % inhibition): 35%
[1]
  B1R Ant. r [10 μM] % Inhibition: 12%

## COc1cc(C)c(S(=O)(=O)N(CCOCC(=O)NC2CCC(C(c3ccc(F)cc3)N(C)C)CC2)Cc2ccccc2)c(C)c1C (stereo not shown) [Example 523]
Human μ opiate receptor
  μ (binding on the μ opioid receptor, % inhibition): 34%
[1]
  B1R Ant. r [10 μM] % Inhibition: 26%

## COc1ccc(S(=O)(=O)N2CCCCC2COCC(=O)NC2CCC(C(c3ccc(F)cc3)N(C)C)CC2)c(OC)c1 (stereo not shown) [Example 524]
Human μ opiate receptor
  μ (binding on the μ opioid receptor, % inhibition): 33%
[1]
  B1R Ant. r [10 μM] % Inhibition: 26%

## COc1cc(C)c(S(=O)(=O)N(C)CCOCC(=O)NCC2CCC(C(CCc3ccccc3)N(C)C)CC2)c(C)c1 (stereo not shown) [Example 525]
Human μ opiate receptor
  μ (binding on the μ opioid receptor, % inhibition): 31%
[1]
  B1R Ant. r [10 μM] % Inhibition: 93%

## CN(C)C(CCc1ccccc1)C1CCC(CNC(=O)COCCN2CCN(S(=O)(=O)c3ccccc3)CC2)CC1 (stereo not shown) [Example 526]
Human μ opiate receptor
  μ (binding on the μ opioid receptor, % inhibition): 32%
[1]
  B1R Ant. r [10 μM] % Inhibition: −30%

## COc1cc(C)c(S(=O)(=O)N2CCC(OCC(=O)NCC3CCC(C(c4ccc(F)cc4)N(C)C)CC3)CC2)c(C)c1C (stereo not shown) [Example 527]
Human μ opiate receptor
  μ (binding on the μ opioid receptor, % inhibition): 38%
[1]
  B1R Ant. r [10 μM] % Inhibition: 68%

## COc1cc(C)c(S(=O)(=O)N2CCN(CCOCC(=O)NCC3CCC(C(CCc4ccccc4)N(C)C)CC3)CC2)c(C)c1C (stereo not shown) [Example 528]
Human μ opiate receptor
  μ (binding on the μ opioid receptor, % inhibition): 34%
[1]
  B1R Ant. r [10 μM] % Inhibition: 14%

## CN(C)C(c1ccc(F)cc1)C1CCC(CCNC(=O)COC2CCN(S(=O)(=O)c3ccccc3)C2)CC1 (stereo not shown) [Example 530]
Human μ opiate receptor
  μ (binding on the μ opioid receptor, % inhibition): 26%
[1]
  B1R Ant. r [10 μM] % Inhibition: 27%

## CN(C)C(c1ccc(Cl)cc1)C1CCC(CCNC(=O)COCCC2CCN(S(=O)(=O)c3ccccc3)CC2)CC1 (stereo not shown) [Example 531]
Human μ opiate receptor
  μ (binding on the μ opioid receptor, % inhibition): 23%
[1]
  B1R Ant. r [10 μM] % Inhibition: −1%

## CN(C)C(c1ccc(F)cc1)C1CCC(CNC(=O)COC2CCN(S(=O)(=O)c3ccccc3)C2)CC1 (stereo not shown) [Example 532]
Human μ opiate receptor
  μ (binding on the μ opioid receptor, % inhibition): 35%
[1]
  B1R Ant. r [10 μM] % Inhibition: −14%

## CN(C)C(CCc1ccccc1)C1CCC(CNC(=O)COCCN(Cc2ccccc2)S(=O)(=O)c2ccccc2)CC1 (stereo not shown) [Example 533]
Human μ opiate receptor
  μ (binding on the μ opioid receptor, % inhibition): 28%
[1]
  B1R Ant. r [10 μM] % Inhibition: 12%

## COc1ccc(S(=O)(=O)N2CCCCC2CCOCC(=O)NCC2CCC(C(CCc3ccccc3)N(C)C)CC2)cc1 (stereo not shown) [Example 535]
Human μ opiate receptor
  μ (binding on the μ opioid receptor, % inhibition): 34%
[1]
  B1R Ant. r [10 μM] % Inhibition: 72%

## CCN(CCOCC(=O)NCC1CCC(C(CCc2ccccc2)N(C)C)CC1)S(=O)(=O)c1c(C)cc(OC)c(C)c1C (stereo not shown) [Example 536]
Human μ opiate receptor
  μ (binding on the μ opioid receptor, % inhibition): 43%
[1]
  B1R Ant. r [10 μM] % Inhibition: 95%

## Cc1ccc(S(=O)(=O)N2CCC(OCC(=O)NCC3CCC(C(CCc4ccccc4)N(C)C)CC3)C2)cc1 (stereo not shown) [Example 538]
Human μ opiate receptor
  μ (binding on the μ opioid receptor, % inhibition): 25%
[1]
  B1R Ant. r [10 μM] % Inhibition: 5%

## CN(C)C(CCc1ccccc1)C1CCC(CNC(=O)COCCN(C)S(=O)(=O)c2ccc(F)cc2)CC1 (stereo not shown) [Example 539]
Human μ opiate receptor
  μ (binding on the μ opioid receptor, % inhibition): 32%
[1]
  B1R Ant. r [10 μM] % Inhibition: 32%

## COc1ccc(S(=O)(=O)N2CCCCC2COCC(=O)NCCC2CCC(C(c3ccc(Cl)cc3)N(C)C)CC2)cc1OC (stereo not shown) [Example 540]
Human μ opiate receptor
  μ (binding on the μ opioid receptor, % inhibition): 23%
[1]
  B1R Ant. r [10 μM] % Inhibition: 19%

## COc1cc(C)c(S(=O)(=O)N2CCC(OCC(=O)NCC3CCC(C(c4ccc(F)cc4)N(C)C)CC3)C2)c(C)c1 (stereo not shown) [Example 541]
Human μ opiate receptor
  μ (binding on the μ opioid receptor, % inhibition): 34%
[1]
  B1R Ant. r [10 μM] % Inhibition: 104%

## COc1cc(C)c(S(=O)(=O)N(CCOCC(=O)NCC2CCC(C(CCc3ccccc3)N(C)C)CC2)Cc2ccccc2)c(C)c1 (stereo not shown) [Example 542]
Human μ opiate receptor
  μ (binding on the μ opioid receptor, % inhibition): 33%
[1]
  B1R Ant. r [10 μM] % Inhibition: 45%

From US8106055B2, “Substituted amide compounds” (Gruenenthal GmbH, priority 2007, dated 2012)
